Assay results published in patent US20240139165A1, “METHODS AND COMPOSITIONS FOR TREATMENT OF INFLAMMATORY BOWEL DISEASE” (SHENZHEN HIGHTIDE BIOPHARMACEUTICAL, LTD., priority 2017, published 2024).

Test: Single-dose pharmacokinetic study of berberine and fish oil in rats
Type: in vivo, male Sprague-Dawley (SD) rats
Settings: SD rats, single oral, BBR 100 mg/kg
From the text: In the single-dose pharmacokinetic study in rats, after 7-day acclimation, healthy male Sprague-Dawley (SD) rats with the body weight of 210-250 g were randomized into six groups as follows (3 rats per group). Fish oil used in this study containing 47.8% (w/w) EPA-ethyl ester and 39.0% (w/w) DHA-ethyl ester. [table] The rats in each group were orally treated with the suspensions of the corresponding testing articles indicated above in 0.5% gum tragacanth respectively. Blood samples of the test animals were collected pre-dose and at the time points of 15 min, 30 min, 1 h, 1.5 h, 2 h, 4 h, 8 h, and 24 h post-dose. The collected blood samples (approximately 400 μL) were placed into tubes containing heparin sodium and centrifuged at 8000 rpm for 6 minutes at 4° C. to separate plasma. The obtained plasma from each sample was stored at −80° C. until being analyzed. Plasma concentrations of BBR and EPA were determined, and PK parameters were calculated.

## COc1ccc2cc3[n+](cc2c1OC)CCc1cc2c(cc1-3)OCO2 [BBR, 5,6-dihydro-9,10-dimethoxybenzo[g]-1,3-benzodioxolo[5,6-a]quinolizinium]
  Cmax of BBR: 4.23 ± 5.46 ng/mL
  Ratio of AUC0-t of BBR compared to BBR group: 1.00
  Ratio of Cmax of BBR compared to BBR group: 1.00
male, Sprague-Dawley, rat, plasma, read-out: AUC0-t of BBR
  AUC(0-t): 45.8 ± 60.1 ng·h/mL
